In one test the target is GPIIb/IIIa (Homo sapiens, UniProt P05106+P08514). The test is described as follows: In vitro solid phase purified glycoprotein IIb/IIIa binding assay (biotinylated fibrinogen). The gist of the method: (§1)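 αvβ3 (1 μg/ml) immobilised in Tris buffer with Ca2+/Mg2+/Mn2+, compounds added 5 min before 5 nM vitronectin, 3 h at 37 °C; bound vitronectin detected by anti-vitronectin antibody/peroxidase ELISA at 490 nm. GPIIb/IIIa coated overnight at 4 °C, biotinylated fibrinogen with compounds 2–4 h RT in modified Tyrodes buffer, avidin-HRP/o-phenylenediamine read at 490 nm.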

The target in a further test is T1, Human αvβ3 (Homo sapiens, UniProt P05106+P06756).
T1 construct: purchased Chemicon International Inc., Temecula, Calif
The experiment in a line: In vitro solid phase purified αvβ3 binding assay (vitronectin/αvβ3). The gist of the method:
as §1

Setting [1] is: RGD-affinity purified GPIIb/IIIa, biotinylated fibrinogen, read-out: GPIIb/IIIa Binding IC50.
Where [2] appears, read: isolated human αvβ3, 5 nM vitronectin, read-out: αvβ3 Binding IC50.

The values that follow come from US7081460B2, “Quinazoline and quinazoline-like compounds for the treatment of integrin-mediated disorders” (Ortho-McNeil Pharmaceutical, Inc., priority 2001, dated 2006).

SMILES strings stand for the structures. Read-outs that look alike come from different tables or passages of the source. Bounds are passed on as bounds.

T1 sequence (P06756 31-889 limits assumed): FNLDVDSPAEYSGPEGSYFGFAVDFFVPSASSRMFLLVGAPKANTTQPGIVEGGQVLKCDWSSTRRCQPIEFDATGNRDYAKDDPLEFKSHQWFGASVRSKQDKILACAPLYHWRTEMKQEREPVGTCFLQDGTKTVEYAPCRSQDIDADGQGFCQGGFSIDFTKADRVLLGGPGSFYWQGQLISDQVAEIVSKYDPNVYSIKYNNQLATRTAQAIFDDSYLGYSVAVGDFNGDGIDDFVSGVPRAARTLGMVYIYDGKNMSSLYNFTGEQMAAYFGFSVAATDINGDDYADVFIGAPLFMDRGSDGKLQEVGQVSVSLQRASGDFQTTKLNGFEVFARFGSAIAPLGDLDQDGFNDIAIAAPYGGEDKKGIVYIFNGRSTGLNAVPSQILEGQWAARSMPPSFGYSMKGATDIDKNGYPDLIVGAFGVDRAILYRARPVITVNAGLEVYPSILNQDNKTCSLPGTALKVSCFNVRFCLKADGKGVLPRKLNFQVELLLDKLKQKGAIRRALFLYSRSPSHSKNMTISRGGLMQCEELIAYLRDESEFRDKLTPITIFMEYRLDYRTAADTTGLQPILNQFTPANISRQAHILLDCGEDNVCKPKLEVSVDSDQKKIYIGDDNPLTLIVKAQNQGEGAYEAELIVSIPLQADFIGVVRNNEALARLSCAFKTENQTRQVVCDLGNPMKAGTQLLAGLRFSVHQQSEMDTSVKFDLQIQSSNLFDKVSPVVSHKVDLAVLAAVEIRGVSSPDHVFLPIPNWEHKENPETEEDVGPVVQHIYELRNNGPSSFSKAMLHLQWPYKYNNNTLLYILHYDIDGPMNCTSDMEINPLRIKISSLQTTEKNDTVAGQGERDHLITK
T1 sequence (P06756 891-1048 partner limits assumed): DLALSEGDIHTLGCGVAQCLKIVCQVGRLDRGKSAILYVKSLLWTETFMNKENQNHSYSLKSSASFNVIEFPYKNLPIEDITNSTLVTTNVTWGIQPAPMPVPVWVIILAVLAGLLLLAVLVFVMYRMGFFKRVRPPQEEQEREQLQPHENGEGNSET
T1 sequence (P05106 27-788): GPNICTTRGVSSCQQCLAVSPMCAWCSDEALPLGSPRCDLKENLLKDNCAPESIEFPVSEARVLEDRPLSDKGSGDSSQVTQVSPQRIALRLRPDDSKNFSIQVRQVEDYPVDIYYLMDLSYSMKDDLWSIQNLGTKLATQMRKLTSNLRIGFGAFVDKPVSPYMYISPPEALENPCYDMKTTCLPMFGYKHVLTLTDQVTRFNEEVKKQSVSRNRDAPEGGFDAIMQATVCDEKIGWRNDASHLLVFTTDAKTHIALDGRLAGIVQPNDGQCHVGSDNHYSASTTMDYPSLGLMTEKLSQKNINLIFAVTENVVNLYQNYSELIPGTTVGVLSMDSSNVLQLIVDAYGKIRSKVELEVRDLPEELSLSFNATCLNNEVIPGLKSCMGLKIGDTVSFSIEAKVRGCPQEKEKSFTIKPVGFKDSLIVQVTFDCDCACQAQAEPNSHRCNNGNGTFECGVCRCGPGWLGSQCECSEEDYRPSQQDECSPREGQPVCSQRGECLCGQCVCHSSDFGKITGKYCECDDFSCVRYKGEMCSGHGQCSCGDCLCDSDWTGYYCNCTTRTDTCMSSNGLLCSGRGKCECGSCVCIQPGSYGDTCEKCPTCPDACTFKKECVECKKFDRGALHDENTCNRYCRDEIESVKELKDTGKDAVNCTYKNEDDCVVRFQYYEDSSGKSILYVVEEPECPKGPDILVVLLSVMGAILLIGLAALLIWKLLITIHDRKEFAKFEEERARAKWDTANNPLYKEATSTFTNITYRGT
Chain of GPIIb/IIIa (P08514 32-887 limits assumed): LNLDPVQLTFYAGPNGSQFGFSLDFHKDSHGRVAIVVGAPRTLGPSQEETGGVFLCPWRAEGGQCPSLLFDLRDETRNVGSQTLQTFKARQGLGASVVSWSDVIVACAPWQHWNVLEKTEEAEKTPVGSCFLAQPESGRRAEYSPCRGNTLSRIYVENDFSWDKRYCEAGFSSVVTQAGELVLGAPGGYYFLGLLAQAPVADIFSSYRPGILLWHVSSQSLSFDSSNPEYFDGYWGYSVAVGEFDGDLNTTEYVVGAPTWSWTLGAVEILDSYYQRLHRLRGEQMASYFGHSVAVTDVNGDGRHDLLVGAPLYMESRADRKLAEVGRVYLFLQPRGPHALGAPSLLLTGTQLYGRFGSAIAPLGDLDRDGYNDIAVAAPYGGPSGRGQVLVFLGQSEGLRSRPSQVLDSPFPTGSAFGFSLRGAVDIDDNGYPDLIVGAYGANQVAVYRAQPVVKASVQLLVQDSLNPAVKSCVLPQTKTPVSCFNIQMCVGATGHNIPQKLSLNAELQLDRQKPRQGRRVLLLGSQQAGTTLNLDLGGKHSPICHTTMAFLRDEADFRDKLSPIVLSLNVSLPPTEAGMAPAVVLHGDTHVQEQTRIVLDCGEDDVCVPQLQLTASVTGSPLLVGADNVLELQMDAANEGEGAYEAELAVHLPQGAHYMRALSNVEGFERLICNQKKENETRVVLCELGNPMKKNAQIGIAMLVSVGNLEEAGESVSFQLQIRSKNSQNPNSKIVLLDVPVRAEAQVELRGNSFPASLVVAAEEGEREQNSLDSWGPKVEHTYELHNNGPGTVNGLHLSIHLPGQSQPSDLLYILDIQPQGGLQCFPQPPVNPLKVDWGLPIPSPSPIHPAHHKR
Chain of GPIIb/IIIa (P08514 891-1039 partner limits assumed): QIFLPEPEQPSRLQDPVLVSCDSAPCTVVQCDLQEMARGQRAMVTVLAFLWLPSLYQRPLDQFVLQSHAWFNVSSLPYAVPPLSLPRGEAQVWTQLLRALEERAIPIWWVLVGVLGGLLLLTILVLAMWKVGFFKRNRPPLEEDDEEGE
Chain of GPIIb/IIIa (P05106 27-788): as the sequence (P05106 27-788) above

As for `COc1cc(C)c(S(=O)(=O)N[C@@H](Cc2nc3ccc(/C=C/CNC(=O)NCc4ccccc4)cc3c(=O)[nH]2)C(=O)O)c(C)c1C` [Compound 56, (αS)-3,4-dihydro-α-[[(4-methoxy-2,3,6-trimethylphenyl)sulfonyl]amino]-4-oxo-6-[(1E)-3-[[[(phenylmethyl)amino]carbonyl]amino]-1-propenyl]-2-quinazolinepropanoic acid], the IC50 on GPIIb/IIIa (setting [1]) was determined as 3900 nM; at Human αvβ3 (setting [2]), 32 nM.
For `COc1ccc(S(=O)(=O)N[C@@H](Cc2nc3ccc(/C=C/CNC(=O)NCc4ccccc4)cc3c(=O)[nH]2)C(=O)O)cc1` [Compound 57, (αS)-3,4-dihydro-α-[[(4-methoxyphenyl)sulfonyl]amino]-4-oxo-6-[(1E)-3-[[[(phenylmethyl)amino]carbonyl]amino]-1-propenyl]-2-quinazolinepropanoic acid], in that order: 3700 nM and 43 nM.
The like results for `Cc1c(C)c(C)c(S(=O)(=O)N[C@@H](Cc2nc3ccc(/C=C/CNC(=O)NC(C)C)cc3c(=O)[nH]2)C(=O)O)c(C)c1C` [Compound 58, (αS)-3,4-dihydro-6-[(1E)-3-[[[(1-methylethyl)amino]carbonyl]amino]-1-propenyl]-4-oxo-α-[[(2,3,4,5,6-pentamethylphenyl)sulfonyl]amino]-2-quinazolinepropanoic acid] were, in that order, 2500 nM and 44 nM.
For `CNC(=O)NC/C=C/c1ccc2nc(C[C@H](NS(=O)(=O)c3c(C)c(C)c(C)c(C)c3C)C(=O)O)[nH]c(=O)c2c1` [Compound 59, (αS)-3,4-dihydro-6-[(1E)-3-[[(methylamino)carbonyl]amino]-1-propenyl]-4-oxo-α-[[(2,3,4,5,6-pentamethylphenyl)sulfonyl]amino]-2-quinazolinepropanoic acid], in that order: 3900 nM and 59 nM.
Regarding `COc1ccc(S(=O)(=O)N[C@@H](Cc2nc3ccc(/C=C/CNC4=NCCCC4)cc3c(=O)[nH]2)C(=O)O)cc1OC` [Compound 60, α-[[(3,4-dimethoxyphenyl)sulfonyl]amino]-(αS)-3,4-dihydro-4-oxo-6-[(1E)-3-[(3,4,5,6-tetrahydro-2-pyridinyl)amino]-1-propenyl]-2-quinazolinepropanoic acid], the IC50 stood at 620 nM at GPIIb/IIIa (setting [1]) and 58 nM on Human αvβ3 (setting [2]).
For `Cc1c(C)c(C)c(S(=O)(=O)N[C@@H](Cc2nc3ccc(/C=C/CNc4nc5ccccc5c(=O)[nH]4)cc3c(=O)[nH]2)C(=O)O)c(C)c1C` [Compound 61, 6-[(1E)-3-[(3,4-dihydro-4-oxo-2-quinazolinyl)amino]-1-propenyl]-(αS)-3,4-dihydro-4-oxo-α-[[(2,3,4,5,6-pentamethylphenyl)sulfonyl]amino]-2-quinazolinepropanoic acid], the IC50 was determined as 12000 nM at GPIIb/IIIa (setting [1]) and 69 nM on Human αvβ3 (setting [2]).
Regarding `Cc1cc(C)c(S(=O)(=O)N[C@@H](Cc2nc3ccc(/C=C/CNC(=O)NCc4ccccc4)cc3c(=O)[nH]2)C(=O)O)c(C)c1` [Compound 62, (αS)-3,4-dihydro-4-oxo-6-[(1E)-3-[[[(phenylmethyl)amino]carbonyl]amino]-1-propenyl]-α-[[(2,4,6-trimethylphenyl)sulfonyl]amino]-2-quinazolinepropanoic acid], the IC50 stood at 4100 nM on GPIIb/IIIa (setting [1]) and 79 nM at Human αvβ3 (setting [2]).
Take `COc1ccc(OC(=O)N[C@@H](Cc2nc3ccc(/C=C/CNC4=NCCN4)cc3c(=O)[nH]2)C(=O)O)cc1` [Compound 63, 6-[(1E)-3-[(4,5-dihydro-1H-imidazol-2-yl)amino]-1-propenyl]-(αS)-3,4-dihydro-α-[[(4-methoxyphenoxy)carbonyl]amino]-4-oxo-2-quinazolinepropanoic acid]: the results for the IC50 on GPIIb/IIIa and at Human αvβ3 were 950 nM and 100 nM, respectively.
For `C=C(CNC(=O)NC(C)C)c1ccc2nc(C[C@H](NS(=O)(=O)c3c(C)c(C)c(C)c(C)c3C)C(=O)O)[nH]c(=O)c2c1` [Compound 64, (αS)-3,4-dihydro-6-[1-[[[[(1-methylethyl)amino]carbonyl]amino]methyl]ethenyl]-4-oxo-α-[[(2,3,4,5,6-pentamethylphenyl)sulfonyl]amino]-2-quinazolinepropanoic acid], the results for the IC50 on GPIIb/IIIa (setting [1]) and at Human αvβ3 (setting [2]) were 1100 nM and 150 nM, respectively.
For `Cc1nn(C)c(Cl)c1S(=O)(=O)N[C@@H](Cc1nc2ccc(/C=C/CNC(=O)NCc3ccccc3)cc2c(=O)[nH]1)C(=O)O` [Compound 65, α-[[(5-chloro-1,3-dimethyl-1H-pyrazol-4-yl)sulfonyl]amino]-(αS)-3,4-dihydro-4-oxo-6-[(1E)-3-[[[(phenylmethyl)amino]carbonyl]amino]-1-propenyl]-2-quinazolinepropanoic acid], in that order: 4100 nM and 160 nM.
The like results for `Cc1c(C)c(C)c(S(=O)(=O)N[C@@H](Cc2nc3ccc(/C=C/CNC(=O)NC4C[C@H]4c4ccccc4)cc3c(=O)[nH]2)C(=O)O)c(C)c1C` (stereo partly drawn) [Compound 66, (αS)-3,4-dihydro-4-oxo-α-[[(2,3,4,5,6-pentamethylphenyl)sulfonyl]amino]-6-[(1E)-3-[[[[(2S)-2-phenylcyclopropyl]amino]carbonyl]amino]-1-propenyl]-2-quinazolinepropanoic acid] were, in that order, 780 nM and 210 nM.
In the case of `O=C(N[C@@H](Cc1nc2ccc(/C=C/CNC3=NCCC3)cc2c(=O)[nH]1)C(=O)O)OCc1ccccc1` [Compound 67, 6-[(1E)-3-[(3,4-dihydro-2H-pyrrol-5-yl)amino]-1-propenyl]-(αS)-3,4-dihydro-4-oxo-α-[[(phenylmethoxy)carbonyl]amino]-2-quinazolinepropanoic acid], the IC50 on GPIIb/IIIa (setting [1]) stood at 580 nM; at Human αvβ3 (setting [2]) it was 420 nM.
For `COc1ccc(S(=O)(=O)N[C@@H](Cc2nc3ccc(/C=C/CNC4=NCCCCCC4)cc3c(=O)[nH]2)C(=O)O)cc1OC` [Compound 68, α-[[(3,4-dimethoxyphenyl)sulfonyl]amino]-6-[(1E)-3-[(3,4,5,6,7,8-hexahydro-2-azocinyl)amino]-1-propenyl]-(αS)-3,4-dihydro-4-oxo-2-quinazolinepropanoic acid], in that order: 230 nM and 440 nM.
The like results for `Cc1ccnc(NC/C=C/c2ccc3nc(C[C@H](NC(=O)OCc4ccccc4)C(=O)O)[nH]c(=O)c3c2)c1` [Compound 69, (αS)-3,4-dihydro-6-[(1E)-3-[(4-methyl-2-pyridinyl)amino]-1-propenyl]-4-oxo-α-[[(phenylmethoxy)carbonyl]amino]-2-quinazolinepropanoic acid] were, in that order, 18000 nM and 490 nM.
For `O=C(NC/C=C/c1ccc2nc(C[C@H](NS(=O)(=O)Cc3ccccc3)C(=O)O)[nH]c(=O)c2c1)NCc1ccccc1` [Compound 70, (αS)-3,4-dihydro-4-oxo-6-[(1E)-3-[[[(phenylmethyl)amino]carbonyl]amino]-1-propenyl]-α-[[(phenylmethyl)sulfonyl]amino]-2-quinazolinepropanoic acid], in that order: 3200 nM and 550 nM.
Regarding `CC(C)(C)OC(=O)N[C@@H](Cc1nc2ccc(/C=C/CNC3=NCCCCC3)cc2c(=O)[nH]1)C(=O)O` [Compound 71, α-[[(1,1-dimethylethoxy)carbonyl]amino]-(αS)-3,4-dihydro-4-oxo-6-[(1E)-3-[(3,4,5,6-tetrahydro-2H-azepin-7-yl)amino]-1-propenyl]-2-quinazolinepropanoic acid], the IC50 was determined as 12000 nM on GPIIb/IIIa (setting [1]) and 960 nM on Human αvβ3 (setting [2]).
As for `O=C(NC/C=C/c1ccc2nc(C[C@H](NS(=O)(=O)c3cccs3)C(=O)O)[nH]c(=O)c2c1)NCc1ccccc1` [Compound 72, (αS)-3,4-dihydro-4-oxo-6-[(1E)-3-[[[(phenylmethyl)amino]carbonyl]amino]-1-propenyl]-α-[(2-thienylsulfonyl)amino]-2-quinazolinepropanoic acid], the IC50 on GPIIb/IIIa (setting [1]) came to 17000 nM; on Human αvβ3 (setting [2]), 1300 nM.
For `CCCCS(=O)(=O)N[C@@H](Cc1nc2ccc(/C=C/CNC(=O)NCc3ccccc3)cc2c(=O)[nH]1)C(=O)O` [Compound 73, α-[(butylsulfonyl)amino]-(αS)-3,4-dihydro-4-oxo-6-[(1E)-3-[[[(phenylmethyl)amino]carbonyl]amino]-1-propenyl]-2-quinazolinepropanoic acid], in that order: greater than 50000 nM and 2000 nM.
The like results for `Cc1c(C)c(C)c(S(=O)(=O)N[C@@H](Cc2nc3ccc(/C=C/CNC4=NCCCCC4)cc3c(=O)[nH]2)C(=O)O)c(C)c1C` [Compound 74, (αS)-3,4-dihydro-4-oxo-α-[[(2,3,4,5,6-pentamethylphenyl)sulfonyl]amino]-6-[(1E)-3-[(3,4,5,6-tetrahydro-2H-azepin-7-yl)amino]-1-propenyl]-2-quinazolinepropanoic acid] were, in that order, 1300 nM and 5400 nM.
For `Cc1c(C)c(C)c(S(=O)(=O)N[C@@H](Cc2nc3ccc(/C=C/CNC(=O)NC4CCCCC4)cc3c(=O)[nH]2)C(=O)O)c(C)c1C` [Compound 75, 6-[(1E)-3-[[(cyclohexylamino)carbonyl]amino]-1-propenyl]-(αS)-3,4-dihydro-4-oxo-α-[[(2,3,4,5,6-pentamethylphenyl)sulfonyl]amino]-2-quinazolinepropanoic acid], in that order: 4900 nM and 620 nM.
`O=C(NC/C=C/c1ccc2nc(C[C@H](NS(=O)(=O)CCc3cccc4ccccc34)C(=O)O)[nH]c(=O)c2c1)NCc1ccccc1` [Compound 76, (αS)-3,4-dihydro-α-[[[2-(1-naphthalenyl)ethyl]sulfonyl]amino]-4-oxo-6-[(1E)-3-[[[(phenylmethyl)amino]carbonyl]amino]-1-propenyl]-2-quinazolinepropanoic acid]: the IC50 at GPIIb/IIIa (setting [1]) is 45000 nM; on Human αvβ3 (setting [2]), greater than 500 nM.
